Assays:
Test in all cases: relative viability (nuclei count vs DMSO), 5 days (fraction); higher = more cells survive
A-427 = test system: A-427
Summary of the method: (§1)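 Lung cancer cell lines, seeded in 1536-well plates, were treated the following day by pin tool with a single drug or with five library-drug doses (not always all listed) in √10 steps on top of a fixed anchor-drug dose. Cells were fixed and nuclei stained in one step after 5 days, and nuclei were counted. Relative viability is the nuclei count for treated wells divided by that for vehicle wells, reported as medians of duplicate plates.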

HCC-15 = test system: HCC-15
Summary of the method: as §1

HCC-78 = test system: HCC-78
Summary of the method: as §1

HOP-62 = test system: HOP-62
Summary of the method: as §1

LC-2-ad = test system: LC-2-ad
Summary of the method: as §1

LXF-289 = test system: LXF-289
Summary of the method: as §1

NCI-H1734 = test system: NCI-H1734
Summary of the method: as §1

NCI-H1755 = test system: NCI-H1755
Summary of the method: as §1

NCI-H1792 = test system: NCI-H1792
Summary of the method: as §1

NCI-H1915 = test system: NCI-H1915
Summary of the method: as §1

NCI-H1975 = test system: NCI-H1975
Summary of the method: as §1

NCI-H2126 = test system: NCI-H2126
Summary of the method: as §1

NCI-H2228 = test system: NCI-H2228
Summary of the method: as §1

NCI-H2342 = test system: NCI-H2342
Summary of the method: as §1

NCI-H2347 = test system: NCI-H2347
Summary of the method: as §1

NCI-H358 = test system: NCI-H358
Summary of the method: as §1

NCI-H522 = test system: NCI-H522
Summary of the method: as §1

NCI-H647 = test system: NCI-H647
Summary of the method: as §1

PC-3 [JPC-3] = test system: PC-3 [JPC-3]
Summary of the method: as §1

RERF-LC-KJ = test system: RERF-LC-KJ
Summary of the method: as §1

SK-LU-1 = test system: SK-LU-1
Summary of the method: as §1

SW 1573 = test system: SW 1573
Summary of the method: as §1

`Cc1sc2c(c1C)C(c1ccc(Cl)cc1)=N[C@@H](CC(=O)OC(C)(C)C)c1nnc(C)n1-2` [JQ1] + COc1cccc2cc(-c3nc([C@H]4CC[C@H](C(=O)O)CC4)n4ncnc(N)c34)[nH]c12 [OSI-027] (partner 0.5 µM) was tested, and the relative viability (A-427; first compound 0.04 µM) was 0.468, the relative viability (A-427; first compound 0.1265 µM) was 0.45 and the relative viability (A-427; first compound 0.4 µM) was 0.458. The relative viability (A-427; first compound 1.265 µM) was 0.3, the relative viability (A-427; first compound 4 µM) was 0.293 and the relative viability (HCC-15; first compound 0.04 µM) was 0.693. It also gave a relative viability (HCC-15; first compound 0.4 µM) of 0.593, a relative viability (HCC-15; first compound 1.265 µM) of 0.347 and a relative viability (HCC-15; first compound 4 µM) of 0.315. For the same compound, the relative viability (HCC-78; first compound 0.04 µM) was 0.389, the relative viability (HCC-78; first compound 0.1265 µM) was 0.47 and the relative viability (HCC-78; first compound 0.4 µM) was 0.387. The relative viability (HCC-78; first compound 1.265 µM) was 0.335, the relative viability (HCC-78; first compound 4 µM) was 0.296 and the relative viability (HOP-62; first compound 0.04 µM) was 0.826. For the same compound, the relative viability (HOP-62; first compound 0.1265 µM) was 0.613, the relative viability (HOP-62; first compound 0.4 µM) was 0.45 and the relative viability (HOP-62; first compound 1.265 µM) was 0.189. It also gave a relative viability (HOP-62; first compound 4 µM) of 0.149, a relative viability (LC-2-ad; first compound 0.04 µM) of 0.77 and a relative viability (LC-2-ad; first compound 0.1265 µM) of 0.543. For the same compound, the relative viability (LC-2-ad; first compound 0.4 µM) was 0.62, the relative viability (LC-2-ad; first compound 1.265 µM) was 0.366 and the relative viability (LC-2-ad; first compound 4 µM) was 0.302. For the same compound, the relative viability (LXF-289; first compound 0.04 µM) was 0.803, the relative viability (LXF-289; first compound 0.1265 µM) was 0.695 and the relative viability (LXF-289; first compound 0.4 µM) was 0.614. It also gave a relative viability (LXF-289; first compound 1.265 µM) of 0.297, a relative viability (LXF-289; first compound 4 µM) of 0.173 and a relative viability (NCI-H1734; first compound 0.04 µM) of 0.619. It also gave a relative viability (NCI-H1734; first compound 0.1265 µM) of 0.508, a relative viability (NCI-H1734; first compound 0.4 µM) of 0.601 and a relative viability (NCI-H1734; first compound 1.265 µM) of 0.354. For the same compound, the relative viability (NCI-H1734; first compound 4 µM) was 0.413, the relative viability (NCI-H1755; first compound 0.04 µM) was 0.758 and the relative viability (NCI-H1755; first compound 0.1265 µM) was 0.68. It also gave a relative viability (NCI-H1755; first compound 0.4 µM) of 0.668, a relative viability (NCI-H1755; first compound 1.265 µM) of 0.527 and a relative viability (NCI-H1755; first compound 4 µM) of 0.39. For the same compound, the relative viability (NCI-H1792; first compound 0.04 µM) was 0.666, the relative viability (NCI-H1792; first compound 0.4 µM) was 0.82 and the relative viability (NCI-H1792; first compound 1.265 µM) was 0.497. For the same compound, the relative viability (NCI-H1792; first compound 4 µM) was 0.57, the relative viability (NCI-H1915; first compound 0.04 µM) was 0.609 and the relative viability (NCI-H1915; first compound 0.1265 µM) was 0.602. The relative viability (NCI-H1915; first compound 0.4 µM) was 0.59, the relative viability (NCI-H1915; first compound 1.265 µM) was 0.263 and the relative viability (NCI-H1915; first compound 4 µM) was 0.217. The relative viability (NCI-H1975; first compound 0.04 µM) was 0.708, the relative viability (NCI-H1975; first compound 0.1265 µM) was 0.527 and the relative viability (NCI-H1975; first compound 0.4 µM) was 0.62. It also gave a relative viability (NCI-H1975; first compound 1.265 µM) of 0.437, a relative viability (NCI-H1975; first compound 4 µM) of 0.393 and a relative viability (NCI-H2126; first compound 0.04 µM) of 0.712. It also gave a relative viability (NCI-H2126; first compound 0.1265 µM) of 0.72, a relative viability (NCI-H2126; first compound 0.4 µM) of 0.739 and a relative viability (NCI-H2126; first compound 1.265 µM) of 0.552. For the same compound, the relative viability (NCI-H2126; first compound 4 µM) was 0.431, the relative viability (NCI-H2228; first compound 0.04 µM) was 0.731 and the relative viability (NCI-H2228; first compound 0.1265 µM) was 0.657. The relative viability (NCI-H2228; first compound 0.4 µM) was 0.466, the relative viability (NCI-H2228; first compound 1.265 µM) was 0.257 and the relative viability (NCI-H2228; first compound 4 µM) was 0.296. It also gave a relative viability (NCI-H2342; first compound 0.04 µM) of 0.695, a relative viability (NCI-H2342; first compound 0.1265 µM) of 0.605 and a relative viability (NCI-H2342; first compound 0.4 µM) of 0.702. For the same compound, the relative viability (NCI-H2342; first compound 1.265 µM) was 0.681, the relative viability (NCI-H2342; first compound 4 µM) was 0.52 and the relative viability (NCI-H2347; first compound 0.04 µM) was 0.328. It also gave a relative viability (NCI-H2347; first compound 0.1265 µM) of 0.536, a relative viability (NCI-H2347; first compound 0.4 µM) of 0.305 and a relative viability (NCI-H2347; first compound 1.265 µM) of 0.346. It also gave a relative viability (NCI-H2347; first compound 4 µM) of 0.31, a relative viability (NCI-H358; first compound 0.04 µM) of 0.705 and a relative viability (NCI-H358; first compound 0.1265 µM) of 0.796. The relative viability (NCI-H358; first compound 0.4 µM) was 0.748, the relative viability (NCI-H358; first compound 1.265 µM) was 0.47 and the relative viability (NCI-H358; first compound 4 µM) was 0.461. It also gave a relative viability (NCI-H522; first compound 0.04 µM) of 0.657, a relative viability (NCI-H522; first compound 0.1265 µM) of 0.556 and a relative viability (NCI-H522; first compound 0.4 µM) of 0.617. It also gave a relative viability (NCI-H522; first compound 4 µM) of 0.468, a relative viability (NCI-H647; first compound 0.04 µM) of 0.567 and a relative viability (NCI-H647; first compound 0.1265 µM) of 0.469. For the same compound, the relative viability (NCI-H647; first compound 0.4 µM) was 0.388, the relative viability (NCI-H647; first compound 1.265 µM) was 0.293 and the relative viability (NCI-H647; first compound 4 µM) was 0.174. It also gave a relative viability (PC-3 [JPC-3]; first compound 0.04 µM) of 0.771, a relative viability (PC-3 [JPC-3]; first compound 0.1265 µM) of 0.823 and a relative viability (PC-3 [JPC-3]; first compound 0.4 µM) of 0.739. It also gave a relative viability (PC-3 [JPC-3]; first compound 1.265 µM) of 0.653, a relative viability (PC-3 [JPC-3]; first compound 4 µM) of 0.445 and a relative viability (RERF-LC-KJ; first compound 0.04 µM) of 0.634. It also gave a relative viability (RERF-LC-KJ; first compound 0.1265 µM) of 0.518, a relative viability (RERF-LC-KJ; first compound 0.4 µM) of 0.531 and a relative viability (RERF-LC-KJ; first compound 1.265 µM) of 0.335. The relative viability (RERF-LC-KJ; first compound 4 µM) was 0.338, the relative viability (SK-LU-1; first compound 0.04 µM) was 0.381 and the relative viability (SK-LU-1; first compound 0.1265 µM) was 0.333. The relative viability (SK-LU-1; first compound 0.4 µM) was 0.253, the relative viability (SK-LU-1; first compound 1.265 µM) was 0.158 and the relative viability (SK-LU-1; first compound 4 µM) was 0.143. The relative viability (SW 1573; first compound 0.04 µM) was 0.511, the relative viability (SW 1573; first compound 0.1265 µM) was 0.475 and the relative viability (SW 1573; first compound 0.4 µM) was 0.371. It also gave a relative viability (SW 1573; first compound 1.265 µM) of 0.229 and a relative viability (SW 1573; first compound 4 µM) of 0.233.

Reference: the supplement of paper PMC10307832
